Molecules are shown by their SMILES.

Common to all, as to format: in vivo
In assay [1] the test system is Beet Armyworm (Spodoptera exigua, LAPHEG). Description: Bioassay on Beet Armyworm (BAW), 128-well diet tray assay. The following applies: Species BAW (Beet Armyworm), read-out: BAW (Biological Results, rating). The procedure, abridged:
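Second instar larvae were exposed to diet treated at 50 μg/cm^2 for five to seven days at 25° C.; mortality was averaged over eight wells.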

In assay [2] the test system is Cabbage Looper (Trichoplusia ni, TRIPNI). Description: Bioassay on Cabbage Looper (CL), 128-well diet tray assay. The following applies: Trichoplusia ni; Species CL (Cabbage Looper); read-out: CL (Biological Results, rating). A digest of the protocol:
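Test molecule is dissolved in 90:10 acetone-water and applied at 50 μg/cm^2 onto artificial diet, then dried. One to five second-instar larvae go into each of eight wells. Trays, sealed but vented, stay at 25° C., 14:10 light-dark, five to seven days, after which mortality is averaged.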

Assay [3] relates to Yellow Fever Mosquito (Aedes aegypti, AEDSAE). In words: Bioassay on Yellow Fever Mosquito (YFM), 96-well plate larval assay. The following applies: Species YFM (Yellow Fever Mosquito). The procedure, abridged:
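Each well was scored for mortality after 3 days at room temperature under a non-evaporative lid. Test molecules came from DMSO masters (4000 ppm stock) diluted with water/acetone 90:10 and dispensed into six replicate plates, which were then infested with roughly 1-day-old larvae in liver-powder water.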

Consider `CN(C)c1ccc(NC(=O)c2cc(NC(=O)[C@H]3[C@H](c4cc(Cl)cc(Cl)c4)C3(Cl)Cl)ccc2Cl)cc1` (relative stereo) [F171, trans-2-Chloro-5-(2,2-dichloro-3-(3,5-dichlorophenyl)cyclopropane-1-carboxamido)-N-(4-(dimethylamino)phenyl)benzamide], for which the pest or weed control at 50 µg/cm2 in assay [1] and in assay [2] was 50 to 100% in each case. Moreover, the “YFM (Biological Results, rating)” value in assay [3] was “A (80-100)”.
For `Nc1ccc(NC(=O)c2cc(NC(=O)[C@H]3[C@H](c4cc(Cl)cc(Cl)c4)C3(Cl)Cl)ccc2Cl)cc1F` (relative stereo) [F174, trans-N-(4-Amino-3-fluorophenyl)-2-chloro-5-(2,2-dichloro-3-(3,5-dichlorophenyl)cyclopropane-1-carboxamido)benzamide], the pest or weed control at 50 µg/cm2 in assay [1] and in assay [2] was 50 to 100% each time. For the same molecule, in assay [3], the “YFM (Biological Results, rating)” value was “A (80-100)”.
Take `Nc1ccc(NC(=O)c2cc(NC(=O)[C@H]3[C@H](c4cc(Cl)cc(Cl)c4)C3(Cl)Cl)ccc2Cl)c(F)c1` (relative stereo) [F175, trans-N-(4-amino-2-fluorophenyl)-2-chloro-5-(2,2-dichloro-3-(3,5-dichlorophenyl)cyclopropane-1-carboxamido)benzamide]: the pest or weed control at 50 µg/cm2 in assay [1] and in assay [2] was 50 to 100% each time. In addition, the “YFM (Biological Results, rating)” value in assay [3] is recorded as “A (80-100)”.
For `CNc1ccc(NC(=O)c2cc(NC(=O)[C@H]3[C@H](c4cc(Cl)cc(Cl)c4)C3(Cl)Cl)ccc2Cl)cc1F` (relative stereo) [F176, trans-2-Chloro-5-(2,2-dichloro-3-(3,5-dichlorophenyl)cyclopropane-1-carboxamido)-N-(3-fluoro-4-(methylamino)phenyl)benzamide], the pest or weed control at 50 µg/cm2 in assay [1] and in assay [2] was 50 to 100% each time. Also, the “YFM (Biological Results, rating)” value in assay [3] is on record as “A (80-100)”.
In the case of `CNc1ccc(NC(=O)c2cc(NC(=O)[C@H]3[C@H](c4cc(Cl)cc(Cl)c4)C3(Cl)Cl)ccc2Cl)c(F)c1` (relative stereo) [F177, trans-2-Chloro-5-(2,2-dichloro-3-(3,5-dichlorophenyl)cyclopropane-1-carboxamido)-N-(2-fluoro-4-(methylamino)phenyl)benzamide], the pest or weed control at 50 µg/cm2 in assay [1] and in assay [2] was 50 to 100% each time. The “YFM (Biological Results, rating)” value in assay [3] is “A (80-100)”.
Turning to `COc1c(Cl)cc([C@H]2[C@H](C(=O)Nc3ccc(Cl)c(C(=O)Nc4ccccc4)c3)C2(Cl)Cl)cc1Cl` (relative stereo) [F179, trans-2-chloro-5-(2,2-dichloro-3-(3,5-dichloro-4-methoxyphenyl)cyclopropane-1-carboxamido)-N-phenylbenzamide], the pest or weed control at 50 µg/cm2 in assay [1] and in assay [2] was 50 to 100% each time. Moreover, the “YFM (Biological Results, rating)” value in assay [3] is given as “B (More than 0-Less than 80)”.
For the molecule `COc1c(Cl)cc([C@H]2[C@H](C(=O)Nc3ccc(Cl)c(C(=O)Nc4ccc(F)cc4F)c3)C2(Cl)Cl)cc1Cl` (relative stereo) [F180, trans-2-Chloro-5-(2,2-dichloro-3-(3,5-dichloro-4-methoxyphenyl)cyclopropane-1-carboxamido)-N-(2,4-difluorophenyl)benzamide], the pest or weed control at 50 µg/cm2 in assay [1] and in assay [2] was 50 to 100% each time. For the same molecule, the “YFM (Biological Results, rating)” value in assay [3] is “A (80-100)”.
For the molecule `N#Cc1cc(F)ccc1NC(=O)c1cc(NC(=O)[C@H]2[C@H](c3ccc(Cl)c(Cl)c3)C2(Cl)Cl)ccc1Cl` (relative stereo) [F190, trans-2-Chloro-N-(2-cyano-4-fluorophenyl)-5-(2,2-dichloro-3-(3,4-dichlorophenyl)cyclopropane-1-carboxamido)benzamide], the pest or weed control at 50 µg/cm2 in assay [1] and in assay [2] was 50 to 100% each time. In addition, the “YFM (Biological Results, rating)” value in assay [3] is on record as “A (80-100)”.
`O=C(Nc1ccc(I)cc1)c1cc(NC(=O)[C@H]2[C@H](c3cc(Cl)cc(Cl)c3)C2(Cl)Cl)ccc1Cl` (relative stereo) [F193, trans-2-Chloro-5-(2,2-dichloro-3-(3,5-dichlorophenyl)cyclopropane-1-carboxamido)-N-(4-iodophenyl)benzamide]: the pest or weed control at 50 µg/cm2 in assay [1] and in assay [2] was 50 to 100% each time. In assay [3], the “YFM (Biological Results, rating)” value is reported as “B (More than 0-Less than 80)”.
As for `O=C(Nc1cccc(I)c1)c1cc(NC(=O)[C@H]2[C@H](c3cc(Cl)cc(Cl)c3)C2(Cl)Cl)ccc1Cl` (relative stereo) [F194, trans-2-Chloro-5-(2,2-dichloro-3-(3,5-dichlorophenyl)cyclopropane-1-carboxamido)-N-(3-iodophenyl)benzamide], the pest or weed control at 50 µg/cm2 in assay [1] and in assay [2] was 50 to 100% in each case. The “YFM (Biological Results, rating)” value in assay [3] is listed as “B (More than 0-Less than 80)”.
In the case of `Cc1cc(N)ccc1NC(=O)c1cc(NC(=O)[C@H]2[C@H](c3cc(Cl)cc(Cl)c3)C2(Cl)Cl)ccc1Cl` (relative stereo) [F195, trans-N-(4-Amino-2-methylphenyl)-2-chloro-5-(2,2-dichloro-3-(3,5-dichlorophenyl)cyclopropane-1-carboxamido)benzamide], the pest or weed control at 50 µg/cm2 in assay [1] and in assay [2] was 50 to 100% throughout. Further, the “YFM (Biological Results, rating)” value in assay [3] is given as “A (80-100)”.
For `CNc1ccc(NC(=O)c2cc(NC(=O)[C@H]3[C@H](c4cc(Cl)cc(Cl)c4)C3(Cl)Cl)ccc2Cl)c(C)c1` (relative stereo) [F196, trans-2-Chloro-5-(2,2-dichloro-3-(3,5-dichlorophenyl)cyclopropane-1-carboxamido)-N-(2-methyl-4-(methylamino)phenyl)benzamide], the pest or weed control at 50 µg/cm2 in assay [1] and in assay [2] was 50 to 100% in each case. Also, in assay [3], the “YFM (Biological Results, rating)” value was “A (80-100)”.
Take `COc1ccc(NC(=O)c2cc(NC(=O)[C@H]3[C@H](c4cc(Cl)cc(Cl)c4)C3(Cl)Cl)ccc2Cl)cc1N` (relative stereo) [F199, trans-N-(3-Amino-4-methoxyphenyl)-2-chloro-5-(2,2-dichloro-3-(3,5-dichlorophenyl)cyclopropane-1-carboxamido)benzamide]: the pest or weed control at 50 µg/cm2 in assay [1] and in assay [2] was 50 to 100% in each case. Moreover, the “YFM (Biological Results, rating)” value in assay [3] is “A (80-100)”.
Consider `CNc1cc(NC(=O)c2cc(NC(=O)[C@H]3[C@H](c4cc(Cl)cc(Cl)c4)C3(Cl)Cl)ccc2Cl)ccc1OC` (relative stereo) [F200, trans-2-Chloro-5-(2,2-dichloro-3-(3,5-dichlorophenyl)cyclopropane-1-carboxamido)-N-(4-methoxy-3-(methylamino)phenyl)benzamide], for which the pest or weed control at 50 µg/cm2 in assay [1] and in assay [2] was 50 to 100% throughout. Moreover, in assay [3], the “YFM (Biological Results, rating)” value is recorded as “B (More than 0-Less than 80)”.
With `Nc1cccc(NC(=O)c2cc(NC(=O)[C@H]3[C@H](c4cc(Cl)cc(Cl)c4)C3(Cl)Cl)ccc2Cl)c1` (relative stereo) [F201, trans-N-(3-Aminophenyl)-2-chloro-5-(2,2-dichloro-3-(3,5-dichlorophenyl)cyclopropane-1-carboxamido)benzamide], the pest or weed control at 50 µg/cm2 in assay [1] and in assay [2] was 50 to 100% in each case. Further, the “YFM (Biological Results, rating)” value in assay [3] was “A (80-100)”.
For `CNc1cccc(NC(=O)c2cc(NC(=O)[C@H]3[C@H](c4cc(Cl)cc(Cl)c4)C3(Cl)Cl)ccc2Cl)c1` (relative stereo) [F202, trans-2-Chloro-5-(2,2-dichloro-3-(3,5-dichlorophenyl)cyclopropane-1-carboxamido)-N-(3-(methylamino)phenyl)benzamide], the pest or weed control at 50 µg/cm2 in assay [1] and in assay [2] was 50 to 100% each time. Further, the “YFM (Biological Results, rating)” value in assay [3] is listed as “A (80-100)”.
Regarding `O=C(Nc1ccc(I)cc1F)c1cc(NC(=O)[C@H]2[C@H](c3cc(Cl)cc(Cl)c3)C2(Cl)Cl)ccc1Cl` (relative stereo) [F203, trans-2-Chloro-5-(2,2-dichloro-3-(3,5-dichlorophenyl)cyclopropane-1-carboxamido)-N-(2-fluoro-4-iodophenyl)benzamide], the pest or weed control at 50 µg/cm2 in assay [1] and in assay [2] was 50 to 100% throughout. Further, in assay [3], the “YFM (Biological Results, rating)” value was “A (80-100)”.
Take `O=C(Nc1ccc(I)c(F)c1)c1cc(NC(=O)[C@H]2[C@H](c3cc(Cl)cc(Cl)c3)C2(Cl)Cl)ccc1Cl` (relative stereo) [F204, trans-2-Chloro-5-(2,2-dichloro-3-(3,5-dichlorophenyl)cyclopropane-1-carboxamido)-N-(3-fluoro-4-iodophenyl)benzamide]: the pest or weed control at 50 µg/cm2 in assay [1] and in assay [2] was 50 to 100% throughout. Moreover, the “YFM (Biological Results, rating)” value in assay [3] is “A (80-100)”.
Regarding `Cc1ccc(NC(=O)c2cc(NC(=O)[C@H]3[C@H](c4cc(Cl)cc(Cl)c4)C3(Cl)Cl)ccc2Cl)cc1N` (relative stereo) [F205, trans-N-(3-Amino-4-methylphenyl)-2-chloro-5-(2,2-dichloro-3-(3,5-dichlorophenyl)cyclopropane-1-carboxamido)benzamide], the pest or weed control at 50 µg/cm2 in assay [1] and in assay [2] was 50 to 100% in each case. The “YFM (Biological Results, rating)” value in assay [3] is reported as “B (More than 0-Less than 80)”.

Source of the values: patent US10219516B2, “Molecules having pesticidal utility, and intermediates, compositions, and processes, related thereto” (priority 2015, dated 2019).
